Patent publication US20240044763A1, “GASTROINTESTINAL TRACT SIMULATION SYSTEM AND METHOD” (ProDigest, priority 2020, published 2024)
Counter-ions that a name gives are not always drawn. Like-named read-outs stand apart in the source and are kept apart here.

Assays:
[1] = gastrointestinal tract simulation system, fasted state, Sporanox solution with or without water; type: in vitro ADME
Protocol: FIGS. 5A-7B are a series of graphs showing the results of an experiment, simulating fasted state conditions, in which tests are performed in an experimental setup as shown in FIG. 1. […] At the start of the first experimental run, 20 mL of Sporanox® solution (corresponding to a dose of 200 mg itraconazole) was added to the stomach (without water) (Vdose 1=20 mL) whereas at the start of the second run, 20 mL of Sporanox solution was added together with 240 mL of water to the first compartment (with water) (Vdose 2=260 mL). […] Itraconazole concentrations were determined through UHPLC chromatography coupled to UV detection. All experiments were performed in biological triplicate.

[2] = cited from earlier work
[3] = cited from earlier work; remark: listed apart in the source

Row | Structure (SMILES) | area under the curve of the permeated compound ([1]; with versus without water, outer vessel (sink)) | behaviour of itraconazole in the duodenum ([1]; without water, duodenum pH 6.5) | aqueous solubility [2] | AUC of solute concentration in the duodenum (fed state with carbohydrate solution compared to fasted state) | AUC of solute concentration in the duodenum (fed state with elevated stomach pH) | decrease in indinavir bioavailability ([3]; high carbohydrate meal compared to fasted) | decrease in indinavir bioavailability ([3]; high fat meal compared to fasted) | decrease in indinavir bioavailability ([3]; high protein meal compared to fasted)
1 | CCC(C)n1ncn(-c2ccc(N3CCN(c4ccc(OCC5COC(Cn6cncn6)(c6ccc(Cl)cc6Cl)O5)cc4)CC3)cc2)c1=O (centres unmarked) [Itraconazole, itraconazole] | absence of a substantial difference | precipitation of a fraction of the administered dose | very low aqueous solubility |  |  |  |  | 
2 | CC(C)(C)NC(=O)[C@@H]1CN(Cc2cccnc2)CCN1C[C@@H](O)C[C@@H](Cc1ccccc1)C(=O)N[C@H]1c2ccccc2C[C@H]1O [indinavir sulfate] |  |  |  | increased | decreased substantially | 45% | 34% | 68%
